Test results: patent publication US11806407B2, “Refillable drug delivery by affinity homing” (UNIVERSITY OF NOTRE DAME DU LAC, priority 2018, dated 2023)
Like-named read-outs stand apart in the source and are kept apart here.

Tests used:
[1] = Weight, survival and morbidity in the tumor studies; details: 3 mg/kg/day doxorubicin equivalent, three consecutive days
Experimental: (§1) In Vivo Tumor Model. Luciferase-expressing MDA-MB-231 cells (Gen Target Inc) were received and passaged 3 times under sterile conditions in standard growth media (DMEM with 10% FBS). Tumors were induced by the injection of 106 cells suspended in 50% growth factor-reduced Matrigel (BD Biosciences) to a total volume of 200 μL (100 μL PBS and 100 μL Matrigel) subcutaneously onto the shaved right flank of NSG mice under sterile conditions. After 14 days, mice without palpable tumors were culled from the study. […] This day was considered as ‘day 0’ throughout the study. One day after gel injection (day 1), tumors started being tracked using in vivo bioluminescence imaging using an IVIS Lumina Imager. Mice were intraperitoneally injected with 0.1 ml of 30 mg/ml D-Luciferin in 1×DPBS 10 min before imaging, determined from control experiments to be sufficient to capture luminescent signal at its plateau. Mice were randomized into groups. Treated animals received Fc-Hdz-Dox or Me-Hdz-Dox (6 mg/kg Dox-equivalent dose) by i.p. injection in 0.1 ml saline 1, 2, and 3 days after hydrogel application. PBS was injected in the same way into control animals. Throughout the study, in vivo bioluminescence imaging and body weight was collected for treated mice every three days. At day 28, mice were euthanized and tumors were excised and weighed.

[2] = test system: MDA-MB-231 cells; test: MTT in vitro cytotoxicity assay; format: cell-based; details: Homo sapiens, 72 hrs
Experimental: In Vitro Drug Functional Assay. […] Briefly, MDA-MB-231 cells were seeded in 96 well plates at a density of 20,000 cells per well in 200 μL complete growth media (DMEM with 10% FBS) and cultured for 24 hrs. Assorted concentrations of Fc-Hdz-Dox, Me-Hdz-Dox and free doxorubicin were prepared in fresh growth media were prepared and added to each well. The cells were incubated for 72 hrs. Controls consisted of cells grown in the same volume of normal media, and background was collected from wells with media only. The media in each well were replaced with 100 uL of 3-(4,5-dimethylthiazol-2-yl)-2,5-diphenyltetrazolium bromide (MTT) salt in PBS solution at a concentration of 2 mg/mL. After incubation at 37° C. for 1 hr, the supernatant was replaced with 100 μL of dimethyl sulfoxide (DMSO) and plates were agitated for 15 minutes at room temperature. Absorbance readings were collected on a TECAN Infinite M200 PRO microplate reader at 570 nm. Results were expressed as viability relative to the cell number in the untreated wells. Samples were fit to a standard dose-response function (GraphPad Prism v8) to extract the IC50 for each compound.

[3] = test system: MDA-MB-231 (luc+) tumor; test: In vivo tumor model with hydrogel adjacent to the tumor; parameters: species or system mice; details: 3 mg/kg/day doxorubicin equivalent, three consecutive days
Experimental: as §1

[4] = mice, i.p., RTECS database; cited from earlier work
[5] = rats; cited from earlier work
[6] = cited from earlier work
[7] = known competitor or probe guests, cited from earlier work
[8] = Competition 1H-NMR to determine Keq of guests for CB[7]; format: binding
Experimental: Determination of Keq by ^1H-NMR competition experiments. ^1H-NMR competition experiments were performed on a 500 MHz Bruker NMR spectrometer, according to the method described by Isaacs and colleagues. Briefly, NMR samples were prepared at three different ratios of a) a model compound for the PEG-appended guest, b) a competitive guest with a previously reported binding constant, and c) free unmodified CB[7]. Samples were prepared in D2O and allowed to reach equilibrium for times ranging from ˜30 minutes for the weakest guest to 4 days for the strongest guests. Equilibrium was verified by tracking the measured ^1H-NMR resonances until the spectra became constant. ^1H-NMR spectra were then acquired for each sample. […] The concentrations of the bound and free guest were obtained by this method, also yielding the concentration for the bound and the free form of the competing guest as well. In these equilibrium mixture, the Krel values were calculated using the relationships below. Krel values for 3 independent experiments with varying and known ratios of each of three components were averaged to obtain the final estimated Keq values.
[formula] Krel can alternatively be expressed as follows:
[formula] Rearranging yields the following expression for Keq: Krel,test=Krel,test/known×Keq,known

[9] = NMR of bupivacaine bound to CB[7]; format: binding; details: preliminary, based on prior experience
[10] = Solubility of bupivacaine alone and with CB[7]; format: physicochemical
[11] = on the basis of fluorescence

For `COc1cccc2c1C(=O)c1c(O)c3c(c(O)c1C2=O)C[C@@](O)(C(=O)CO)C[C@@H]3O[C@H]1C[C@H](N)[C@H](O)[C@H](C)O1` [doxorubicin], the “tolerability (weight, survival)” value [1] was “weight loss and poor survival outcomes”, the IC50 [2] was 490 nM and the tumor growth [3] was “tumors continued to grow in spite of treatment”. For the same compound, the LD50 [4] was 11.2 mg/kg.
For cucurbit[7]uril [CB[7]], the LD50 [5] is listed as greater than 250 mg/kg and the degradation in vivo [6] is listed as “not appreciably degraded in vivo”.
In the case of `NCCCCCCN` [1,6-diaminohexane], the “Keq for binding to CB[7], literature-reported” value (“Keq … literature-reported” below) [7] is listed as 8.9e+07 M⁻¹.
Compound `CC(=O)NCCC(=O)NC12CC3CC(CC(C3)C1)C2` [Ada-Am-Ac] has a Krel ([8]; model guest relative to competitive guest, average of three competition experiments) of 0.89.
With `CCCCN1CCCCC1C(=O)Nc1c(C)cccc1C` (stereo not shown) [bupivacaine] the “binding to CB[7]” value [9] was ~10^8 M^−1, the water solubility ([10]; combined with CB[7]) was “very good water solubility” and the solubility ([10]; on its own) was “sparingly soluble”.
For `CN(C)c1ccc2cc3ccc(N(C)C)cc3nc2c1` [Acridine Orange], the “Keq … literature-reported” value [7] is listed as 200000 M⁻¹.
With `CN1/C(=C/C=C/C=C/C2=[N+](CCCCCC(=O)NCCC(=O)NC34CC5CC(CC(C5)C3)C4)c3ccc(S(=O)(=O)[O-])cc3C2(C)C)C(C)(C)c2cc(S(=O)(=O)O)ccc21` [Ad-Am-Cy5] the “fold less accumulation at the hydrogel than the strong conjugate” value [11] was 3 fold and the “Keq for binding to CB[7]” value ([8]; competition 1H-NMR in D2O, association constant) was 2.1e+10 M⁻¹.
For `OC12CC3CC(CC(C3)C1)C2` [1-adamantanol], the “Keq … literature-reported” value [7] is given as 2.3e+10 M⁻¹ and the “Keq … literature-reported” value ([7]; listed as SM2) is given as roughly 1e+10 M⁻¹.
In the case of `NCc1ccc(CN)cc1` [p-xylylenediamine], the “Keq … literature-reported” value [7] is given as 1.78e+09 M⁻¹, the “Keq … literature-reported” value ([7]; listed as SM^−1) is given as roughly 1e+09 M⁻¹ and the “Keq … literature-reported” value ([7]; listed as pxylylenediamine) is given as 1.84e+09 M⁻¹.
